Data published in publication PMC2792043 (PLoS ONE, 2009).

Experiments:
[1] = tested on: influenza A and B viruses; assay type: cell-based
[2] = biological target: NA from influenza PR8 virus (Influenza A virus, UniProt P03468); assay: biochemical
NA from influenza PR8 virus, sequence (P03468 whole entry, looked up): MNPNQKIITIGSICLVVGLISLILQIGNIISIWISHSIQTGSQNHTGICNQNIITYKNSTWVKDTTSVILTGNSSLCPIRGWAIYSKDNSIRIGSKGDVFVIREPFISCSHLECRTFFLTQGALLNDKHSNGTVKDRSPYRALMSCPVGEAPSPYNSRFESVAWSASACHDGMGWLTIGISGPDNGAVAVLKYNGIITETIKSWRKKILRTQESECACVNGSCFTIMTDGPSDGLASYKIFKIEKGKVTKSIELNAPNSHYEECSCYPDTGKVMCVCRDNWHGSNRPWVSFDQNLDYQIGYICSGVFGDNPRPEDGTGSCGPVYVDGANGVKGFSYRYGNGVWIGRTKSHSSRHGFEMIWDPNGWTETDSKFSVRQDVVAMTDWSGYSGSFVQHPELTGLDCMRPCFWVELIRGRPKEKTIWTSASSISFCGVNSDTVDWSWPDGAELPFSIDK

`O=C(O)C1=CC(=C(c2ccc(O)c(C(=O)O)c2)c2ccc(O)c(C(=O)O)c2)C=CC1=O` [ATA, Aurintricarboxylic acid] was tested, and the “replication after pre-incubation of virus with ATA” value [1] was “inhibited replication of both WSN and H274Y viruses in a dose-responsive fashion” and the IC50 [2] was 17 µM.
